From patent US4281121A, “1,3,4-Thiadiazole-2-carboxylic acid derivatives, process for making the same and fungicidal and nematocidal compositions containing same” (Schering Aktiengesellschaft, priority 1978, dated 1981)
Like-named read-outs stand apart in the source and are kept apart here.

What was measured:
Plasmopara viticola = assay: Prophylactic leaf treatment of grapevines in the hothouse against Plasmopara viticola; type: in vivo
Summary of the method: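 Grapevines (5–8 leaves) sprayed to runoff with compound as 20% spray powder, then after drying inoculated on leaf undersides with sporangial suspension (~20,000/ml). Incubated at 22–24 °C, saturated humidity, 3–4 days normal humidity (30–70%), then one day saturated; activity from mean % infested leaf area per treatment.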

Tilletia caries [1] = assay: Treatment of oat seeds infested with Tilletia caries (spore germination); type: in vivo
Tilletia caries [2] = assay: Seed treatment in open field tests regarding infestation by Tilletia caries (oats); type: in vivo; details: winter oats; 100 g active agent/100 kg; about 9 months
Piricularia oryzae = type: in vivo; details: 5 days
Pythium ultimum = assay: Threshold concentration test for use of the compounds against Pythium ultimum (infested soil, garden peas); type: in vivo; parameters: key to root evaluation (1-4): 4: white roots without fungous necrosis; 3: white roots, minor fungous necrosis; 2: brown roots, already more pronounced fungous necrosis; 1: heavy fungous necrosis, roots rotted; details: for root evaluation (1-4): 3 weeks; for number of sound peas: 20 grains per dish, 3 weeks at 20-24° C.
Summary of the method: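 Pulverulent agents at 20% concentration mixed evenly into soil heavily infested with Pythium ultimum, then garden peas ('Wunder von Kelvedon', 20 per dish) sown at once. After three weeks at 20–24 °C in a hothouse, sound peas counted and roots scored on a 1–4 scale.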

Septoria nodorum = assay: Treatment of oat seeds against Septoria nodorum; type: in vivo; details: 50 g active agent/100 kg seeds; 4 weeks
Description: Effects of the treatment of oat seeds against Septoria nodorum
They were then seeded on a moist substrate for germination. As a control untreated seeds were likewise seeded. At about 6° C. the seed was incubated in an air-conditioned chamber until after 4 weeks the proportion of diseased seeds could be determined and the activity of the fungicidal compounds was calculated on the basis of the following formula: [formula]
The active agents were applied in the form of 20% concentration pulverulent compositions.

[3] = test system: Helminthosporium gramineum; assay: Seed treatment in open field tests for infestation by Helminthosporium gramineum (barley); type: in vivo; details: summer barley, about 3 months
Description: Seed treatment in open field tests for infestation by Helminthosporium gramineum
The active agents were used in the form of pulverulent compositions. After about 8 months in case of winter barley and after about 3 months in case of summer barley the infested plants were counted and the activity was calculated by the formula [formula]

Helminthosporium gram = details: about 5 weeks
Description: Treatment of barley seeds infested with Helminthosporium gram
After emergence, the plants were subjected to illumination for 12 hours per day. After about 5 weeks the infested plants were counted and the total number of plants for each test were also counted. The active agents tested were used as pulverulent compositions.

Alternaria solani = assay: Inhibition of fungus in a nutrient solution: Alternaria solani; type: cell-based; details: 6 days at 21-23° C.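 Note: 0 means no fungus growth and higher grades mean more surface covered.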
Penicillium digitatum = assay: Inhibition of fungus in a nutrient solution: Penicillium digitatum; type: cell-based; details: 6 days at 21-23° C.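 Note: 0 means no fungus growth and higher grades mean more surface covered.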
Fusarium avenaceum = assay: Inhibition of fungus in a nutrient solution: Fusarium avenaceum; type: cell-based; details: 6 days at 21-23° C.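 Note: 0 means no fungus growth and higher grades mean more surface covered.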
Description: Inhibition of fungus in a nutrient solution
20 ml of a nutrient solution of grape juice and water (1:1) were filled into a glass vial of a 100 ml capacity and were mixed with the pulverulent active agents which appear from the subsequent table. Thereafter, the solution was inoculated with conidia (spores) of the test fungi.
After an incubation time of 6 days at 21° to 23° C. the fungus development on the surface of the nutrient solution was evaluated. The test fungi used were the following: Penicillium digitatum, Botrytis cinerea, Alternaria solani, Fusarium avenaceum.
The evaluation was carried out at a scale from 0 to 5 as follows: […]

Botrytis cinerea = assay: Inhibition of fungus in a nutrient solution: Botrytis cinerea; type: cell-based; details: 6 days at 21-23° C.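 Note: 0 means no fungus growth and higher grades mean more surface covered.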
[4] = concentration of active agent 0.025 (unit not given)
[5] = concentration of active agent 0.1 (percentages)
[6] = 25 g active agent/100 kg barley
[7] = 50 g active agent/100 kg barley
[8] = 100 g active agent/100 kg barley

| Compound | % activity (Plasmopara viticola; [4]) | % activity (Tilletia caries [1]; 10 g active agent per 100 kg) | % activity (Tilletia caries [1]; 20 g active agent per 100 kg) | % activity (Piricularia oryzae; [5]) | root evaluation (1-4) (Pythium ultimum; 20 mg/l soil) | number of sound peas (Pythium ultimum; 20 mg/l soil) | root evaluation (1-4) (Pythium ultimum; 40 mg/l soil) | number of sound peas (Pythium ultimum; 40 mg/l soil) | root evaluation (1-4) (Pythium ultimum; 80 mg/l soil) | number of sound peas (Pythium ultimum; 80 mg/l soil) | % activity (Septoria nodorum) | % activity [3, 6] | % activity [3, 7] | % activity [3, 8] | % activity (Helminthosporium gram; 10 g active agent per 100 kg) | % activity (Helminthosporium gram; 20 g active agent per 100 kg) | % activity (Helminthosporium gram; 50 g active agent per 100 kg) | % activity (Tilletia caries [1]; 50 g active agent per 100 kg) | fungus development on the surface of the nutrient solution (0-5) (Alternaria solani; 0.002%) | fungus development on the surface of the nutrient solution (0-5) (Alternaria solani; 0.004%) | also measured |
| --- | --- | --- | --- | --- | --- | --- | --- | --- | --- | --- | --- | --- | --- | --- | --- | --- | --- | --- | --- | --- | --- |
| CS(=O)(=O)c1nnc(C(=O)NCC2CCCCC2)s1 [5-methylsulfonyl-1,3,4-thiadiazole-2-carboxylic acid cyclohexylmethylamide] | 97% | 99% | 100% | 80% |  |  |  |  |  |  |  |  |  |  |  |  |  |  |  |  | % activity (Plasmopara viticola; concentration of active agent 0.001 (unit not given)): 76%; % activity (Plasmopara viticola; concentration of active agent 0.005 (unit not given)): 88%; % activity (Tilletia caries [1]; 5 g active agent per 100 kg): 86%; % activity (Tilletia caries [2]): 100%; % activity (Piricularia oryzae; concentration of active agent 0.02 (percentages)): 60% |
| CCS(=O)(=O)c1nnc(C(=O)NCCCOC)s1 [5-ethylsulfonyl-1,3,4-thiadiazole-2-carboxylic acid-(3-methoxypropyl)-amide] | 90% | 100% | 100% | 97% | 1 | 11 | 4 | 18 | 4 | 17 | 86% | 94% | 96% | 100% | 99% | 99% | 100% | 100% |  |  |  |
| CCCNC(=O)c1nnc(S(=O)(=O)CC)s1 [5-ethylsulfonyl-1,3,4-thiadiazole-2-carboxylic acid-propylamide] |  | 100% | 100% |  |  |  |  |  |  |  | 81% | 95% | 99.3% | 100% |  |  | 92% | 100% |  |  |  |
| CCOC(=O)c1nnc(S(=O)(=O)CC)s1 [5-ethylsulfonyl-1,3,4-thiadiazole-2-carboxylic acid-ethylester] |  |  |  | 95% |  |  |  |  |  |  |  |  |  |  |  |  |  |  | 0 | 0 | fungus development on the surface of the nutrient solution (0-5) (Penicillium digitatum; 0.002%): 1; fungus development on the surface of the nutrient solution (0-5) (Penicillium digitatum; 0.004%): 0; fungus development on the surface of the nutrient solution (0-5) (Fusarium avenaceum; 0.002%): 1; fungus development on the surface of the nutrient solution (0-5) (Fusarium avenaceum; 0.004%): 0; fungus development on the surface of the nutrient solution (0-5) (Botrytis cinerea; 0.002%): 2 (5 to 10% of the surface covered by the fungus turf); fungus development on the surface of the nutrient solution (0-5) (Botrytis cinerea; 0.004%): 0 |
| CCS(=O)(=O)c1nnc(C(=O)NCCOC)s1 [5-ethylsulfonyl-1,3,4-thiadiazole-2-carboxylic acid-(2-methoxyethyl)-amide] |  | 100% | 100% | 90% | 1 | 13 | 4 | 16 | 4 | 16 | 86% | 92% | 98% | 99.8% | 100% | 99% | 100% | 100% |  |  |  |
| CCCCNC(=O)c1nnc(S(=O)(=O)CC)s1 [5-ethylsulfonyl-1,3,4-thiadiazole-2-carboxylic acid-butylamide] |  | 100% | 100% | 97% | 1 | 8 | 4 | 16 | 4 | 20 |  |  |  | 100% |  |  |  | 100% | 1 | 0 | fungus development on the surface of the nutrient solution (0-5) (Penicillium digitatum; 0.002%): 1; fungus development on the surface of the nutrient solution (0-5) (Penicillium digitatum; 0.004%): 0; fungus development on the surface of the nutrient solution (0-5) (Fusarium avenaceum; 0.002%): 1; fungus development on the surface of the nutrient solution (0-5) (Fusarium avenaceum; 0.004%): 0; fungus development on the surface of the nutrient solution (0-5) (Botrytis cinerea; 0.002%): 2 (5 to 10% of the surface covered by the fungus turf); fungus development on the surface of the nutrient solution (0-5) (Botrytis cinerea; 0.004%): 0 |
